From patent US10231463B2, “Food mass suitable for microwaving” (Chemische Fabrik Budenheim KG, priority 2013, dated 2019)

What was measured:
[1] = Pore volume by nitrogen gas adsorption (BJH method, BELSORP-mini II); format: physicochemical; conditions: total pore volume Vp, nitrogen adsorption at 77.3 K
Description: Determining the Pore Volume
The pore volume in accordance with the present invention is characterised by means of gas adsorption. The recording of physisorption isotherms (adsorption and desorption isotherms) of inert gas molecules at low temperatures is routinely used for determining solids parameters.
The BJH method provides an algorithm for the calculation of pore width distribution from nitrogen adsorption data on the assumption of a cylindrical pore geometry. In that respect consideration is given to the change in the adsorbed volume in the pores in dependence on the pore radius, wherein the pore radius distribution function is related as a relative value to the total pore volume. […] It is assumed that the entire pore system is filled with a capillary condensate.

[2] = Thawing and baking trials with yeast-raised wheat frozen doughs in a microwave oven; conditions: yeast-raised wheat frozen dough; for ΔT (temperature difference between crust temperature and crumb temperature): 2 parts by weight additive, 600 watts, 120 seconds; for Microwave activity: assessment scale from ΔT
Method: Dough Composition (Basic Recipe):
In addition 2 parts by weight of microwave absorber were added to the basic recipe.
• Mixing and kneading time: 3+2 minutes (the latter in a Stephan mixer) • Dough standing time: 20 minutes • Dough piece weight: 200 g • Cooking time of the dough pieces: 20 minutes • Freezing time: about 4 hours • Deep freeze storage time: about 2 days Thawing and Baking Trials:
The deep-frozen dough pieces were exposed to microwave radiation in a microwave oven from Panasonic (model: NN-GD560M—inverter microwave) for a predetermined period of 120 seconds and with a predetermined microwave power of 600 watts (according to the device indication). After 2 minutes of standing time the temperature of the crust and the crumb was measured by means of an infrared temperature sensor at various measurement points on the dough piece.
Measurement value 1 (M1)=average crust temperature outside
Measurement value 2 (M2)=average crumb temperature in the interior of the dough piece.

Compound | Pore Volume [1] | ΔT (temperature difference between crust temperature and crumb temperature) [2] | Microwave activity [2]
O=C([O-])[O-].[Ca+2] [CaCO3, Calcium carbonate] | 9.0 10^−3 cm^3/g | 31.5 °C | 2 (ΔT=25 to 40° C.=good)
O=P([O-])([O-])OP(=O)([O-])[O-].[Cu+2].[Cu+2] [CuPP, Copper-II pyrophosphate] | 12 10^−3 cm^3/g | 37.9 °C | 2 (ΔT=25 to 40° C.=good)
O.O.O=P([O-])([O-])O.[Ca+2] [DCPD, Dicalcium phosphate dihydrate] | 5.3 10^−3 cm^3/g | 26.2 °C | 2 (ΔT=25 to 40° C.=good)
O.O.O.O=P([O-])([O-])O.[Mg+2] [DMP, Dimagnesium phosphate trihydrate] | 6.0 10^−3 cm^3/g | 41.9 °C | 1 (ΔT=>40° C.=very good)
O=P([O-])(O)O.O=P([O-])(O)O.[Ca+2] [MCPA(V), Monocalcium phosphate anhydrate, reference compound] | 2.3 10^−3 cm^3/g | 17.0 °C | 3 (ΔT=<25° C.=no additional activity)
O.O=P([O-])(O)O.O=P([O-])(O)O.[Ca+2] [MCPM, Monocalcium phosphate monohydrate] | 23 10^−3 cm^3/g | 32.5 °C | 2 (ΔT=25 to 40° C.=good)
O=P([O-])(O)O.O=P([O-])(O)O.[Mg+2] [MSPA, Monomagnesium phosphate anhydrate] | 4.5 10^−3 cm^3/g | 41.1 °C | 1 (ΔT=>40° C.=very good)
[Mg+2].[OH-].[OH-] [Mg(OH)2, Magnesium hydroxide] | 18.2 10^−3 cm^3/g | 62.5 °C | 1 (ΔT=>40° C.=very good)
[Cl-].[Cl-].[Mg+2] [MgCl2(V), Magnesium chloride, reference compound] | 2.0 10^−3 cm^3/g | 19.8 °C | 3 (ΔT=<25° C.=no additional activity)
O=S(=O)([O-])[O-].O=S(=O)([O-])[O-].[Al+3].[Na+] [SAS, Acid sodium aluminium sulphate] | 3.9 10^−3 cm^3/g | 39.6 °C | 2 (ΔT=25 to 40° C.=good)
O=C([O-])CC(O)(CC(=O)[O-])C(=O)[O-].O=C([O-])CC(O)(CC(=O)[O-])C(=O)[O-].[Ca+2].[Ca+2].[Ca+2] [TCC, Tricalcium citrate] | 14.2 10^−3 cm^3/g | 28.6 °C | 2 (ΔT=25 to 40° C.=good)
O=P([O-])([O-])[O-].O=P([O-])([O-])[O-].[Ca+2].[Ca+2].[Ca+2] [TCP, Tricalcium phosphate] | 120 10^−3 cm^3/g | 36.2 °C | 2 (ΔT=25 to 40° C.=good)
O.O.O.O.O=P([O-])([O-])[O-].O=P([O-])([O-])[O-].[Mg+2].[Mg+2].[Mg+2] [TMP, Trimagnesium phosphate tetrahydrate] | 16 10^−3 cm^3/g | 41.0 °C | 1 (ΔT=>40° C.=very good)
O=P([O-])([O-])OP(=O)([O-])[O-].[Na+].[Na+].[Na+].[Na+] [TSPP, Tetrasodium pyrophosphate] | 3.3 10^−3 cm^3/g | 40.8 °C | 1 (ΔT=>40° C.=very good)
O.O.O=P([O-])([O-])[O-].O=P([O-])([O-])[O-].[Zn+2].[Zn+2].[Zn+2] [TZP, Trizinc phosphate dihydrate] | 6.3 10^−3 cm^3/g | 38.0 °C | 2 (ΔT=25 to 40° C.=good)
